Results published in ChEMBL document CHEMBL3046336, “Assessment of the impact of insecticides on Anagrus nilaparvatae (Pang et Wang) (Hymenoptera: Mymanidae), an egg parasitoid of the rice planthopper, Nilaparvata lugens (Hemiptera: Delphacidae)” (Crop Prot, 2008).

Columns and labels:
[1] = Acute contact toxicity against adult Anagrus nilaparvatae assessed as dead parasitoid wasps compound treated for 1 hr measured after 8 hr wash-out period
[2] = Acute oral toxicity against female adult Anagrus nilaparvatae in petridish under laboratory conditions assessed as mortality compound treated as emulsible concentrate with acetone and Triton X-100 measured after 1 to 8 hr; conditions: in vivo
[3] = Residual toxicity against compound treated rice leaves-fed adult Anagrus nilaparvatae assessed as mortality measured on day 0 post insecticide treatment to plant; conditions: in vivo, oral
[4] = Chronic toxicity against female adult Anagrus nilaparvatae in petridish under laboratory conditions assessed as reduction in longetivity compound treated as emulsible concentrate with acetone and Triton X-100 relative to untreated control; design: scale not given: the % may be the effect or the level left
[5] = Chronic toxicity against female adult Anagrus nilaparvatae in petridish under laboratory conditions assessed as reduction in fecundity compound treated as emulsible concentrate with acetone and […] relative to untreated control; design: scale not given: the % may be the effect or the level left
[6] = Acute oral toxicity against female adult Anagrus nilaparvatae in petridish under laboratory conditions assessed as mortality compound treated as emulsible concentrate with acetone and Triton X-100 measured after 8 hr; conditions: in vivo
[7] = Residual toxicity against compound treated rice leaves-fed adult Anagrus nilaparvatae assessed as mortality measured on day 7 post insecticide treatment to plant; conditions: in vivo
[8] = Acute oral toxicity against female adult Anagrus nilaparvatae in petridish under laboratory conditions assessed as mortality compound treated as emulsible concentrate with acetone and Triton X-100 measured after 2 hr; conditions: in vivo
[9] = Acute oral toxicity against female adult Anagrus nilaparvatae in petridish under laboratory conditions assessed as mortality compound treated as emulsible concentrate with acetone and Triton X-100 measured after 4 hr; conditions: in vivo

Structure (SMILES): CC[C@H](C)[C@H]1O[C@]2(C=C[C@@H]1C)C[C@@H]1C[C@@H](C/C=C(\C)[C@@H](O[C@H]3C[C@H](OC)[C@@H](O[C@H]4C[C@H](OC)[C@@H](O)[C@H](C)O4)[C@H](C)O3)[C@@H](C)/C=C/C=C3\CO[C@@H]4[C@H](O)C(C)=C[C@@H](C(=O)O1)[C@]34O)O2.CO[C@H]1C[C@H](O[C@H]2[C@H](C)O[C@@H](O[C@@H]3/C(C)=C/C[C@@H]4C[C@@H](C[C@]5(C=C[C@H](C)[C@@H](C(C)C)O5)O4)OC(=O)[C@@H]4C=C(C)[C@@H](O)[C@H]5OC/C(=C\C=C\[C@@H]3C)[C@]54O)C[C@@H]2OC)O[C@@H](C)[C@@H]1O [ABAMECTIN]
- LC50 [1]: 8.499 mgAi/L

Structure (SMILES): CC(C)N1C(=O)N(c2ccccc2)CS/C1=N\C(C)(C)C [BUPROFEZIN]
- LC50 [1]: > 1000 mgAi/L
- mortality [2]: 29.4%
- mortality at 0 day [3]: 1.1%

Structure (SMILES): O=C(NC(=O)c1c(F)cccc1F)Nc1cc(Cl)c(Oc2ncc(C(F)(F)F)cc2Cl)c(Cl)c1 [CHLORFLUAZURON]
- Activity [4]: 29%
- LC50 [1]: > 1000 mgAi/L
- mortality [2]: 4%
- Activity [5]: 49%

Structure (SMILES): CCOP(=S)(OCC)Oc1nc(Cl)c(Cl)cc1Cl [CHLORPYRIFOS]
- mortality at 8 h [6]: 100%
- LC50 [1]: 0.002 mgAi/L
- mortality at 7 day ([7]; oral): < 10%

Structure (SMILES): COP(=O)(OC)OC=C(Cl)Cl [DICHLORVOS]
- mortality at 2 h [8]: 100%
- mortality at 8 h [6]: 100%
- LC50 [1]: 15.946 mgAi/L

Structure (SMILES): N#Cc1nn(-c2c(Cl)cc(C(F)(F)F)cc2Cl)c(N)c1[S+]([O-])C(F)(F)F (configuration not stated) [FIPRONIL]
- mortality at 8 h [6]: 100%
- LC50 [1]: 0.18 mgAi/L
- mortality at 7 day ([7]; oral): 50%

Structure (SMILES): Cc1cc(C)cc(C(=O)N(NC(=O)c2ccc3c(c2C)OC(C)C3)C(C)(C)C)c1 (configuration not stated) [FUXIAN]
- Activity [4]: 29%
- LC50 [1]: > 1000 mgAi/L
- mortality [2]: 1.1%
- Activity [5]: 47%

Structure (SMILES): O=C(NC(=O)c1c(F)cccc1F)Nc1cc(Cl)c(OC(F)(F)C(F)F)c(Cl)c1 [HEXAFLUMURON]
- Activity [4]: 24%
- LC50 [1]: > 1000 mgAi/L
- mortality [2]: 1.3%
- Activity [5]: 28%

Structure (SMILES): O=[N+]([O-])NC1=NCCN1Cc1ccc(Cl)nc1 [IMIDACLOPRID]
- Activity [9]: Toxic
- LC50 [1]: 0.021 mgAi/L
- mortality at 0 day [3]: 97.6%
- mortality at 7 day ([7]; oral): 80.7%

Structure (SMILES): CNC(=O)Oc1ccccc1C(C)C [ISOPROCARB]
- Activity [9]: Toxic
- LC50 [1]: 1.071 mgAi/L

Structure (SMILES): COP(N)(=O)SC (configuration not stated) [METHAMIDOPHOS]
- mortality at 8 h [6]: 100%
- mortality at 7 day ([7]; oral): < 10%

Structure (SMILES): CCOc1ccc([Si](C)(C)CCCc2ccc(F)c(Oc3ccccc3)c2)cc1 [SILAFLUOFEN]
- mortality at 8 h [6]: 37.6%
- LC50 [1]: 14.22 mgAi/L
- mortality at 7 day ([7]; oral): 1.1%

Structure (SMILES): CN1COCN(Cc2cnc(Cl)s2)/C1=N\[N+](=O)[O-] [THIAMETHOXAM]
- Activity [9]: Toxic
- LC50 [1]: 0.52 mgAi/L
- mortality at 7 day ([7]; oral): 66.8%

Structure (SMILES): CCOP(=S)(OCC)Oc1ncn(-c2ccccc2)n1 [TRIAZOPHOS]
- mortality at 8 h [6]: 100%
- LC50 [1]: 1.253 mgAi/L
- mortality at 7 day [7]: 54.6%
